Results on 7 compounds are retold here after patent US12486269B2 (Aconcagua Bio, Inc., priority 2024, dated 2025).

The structures appear in SMILES notation.

The target of test [1] is T1, COS-7/AMY3 (human calcitonin receptor (CTR) and RAMP3) (Homo sapiens, UniProt O60896+P30988).
T1 construct: expressed in transfected cells; host or cells: COS-7
Kind of test: Amylin Receptor cAMP Assay II. The test is classed as cell-based. To be noted: values marked **: Amylin Receptor cAMP Assay II; COS-7/AMY3 cells, cAMP dynamic 2 kit, 30 min; read-out: Amylin Receptor cAMP Stimulation Activity: EC50. The method in brief:
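Agonist-induced cAMP was quantified by HTRF ratio at 665/615 nm and expressed as % of the window from vehicle to MAX control. Stimulation lasted 30 min at 37 °C in HBSS/20 mM HEPES/0.5 mM IBMX/0.1% casein, using stable human CTR+RAMP3 (AMY3) COS-7 cells at 2000 per well.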

For test [2], the target named is T2, human calcitonin receptor (CTR) (Homo sapiens, UniProt P30988).
T2 construct: expressed in transfected cells; host or cells: COS-7 (COS7-human CTR Clone #2)
T2 sequence (P30988 25-474): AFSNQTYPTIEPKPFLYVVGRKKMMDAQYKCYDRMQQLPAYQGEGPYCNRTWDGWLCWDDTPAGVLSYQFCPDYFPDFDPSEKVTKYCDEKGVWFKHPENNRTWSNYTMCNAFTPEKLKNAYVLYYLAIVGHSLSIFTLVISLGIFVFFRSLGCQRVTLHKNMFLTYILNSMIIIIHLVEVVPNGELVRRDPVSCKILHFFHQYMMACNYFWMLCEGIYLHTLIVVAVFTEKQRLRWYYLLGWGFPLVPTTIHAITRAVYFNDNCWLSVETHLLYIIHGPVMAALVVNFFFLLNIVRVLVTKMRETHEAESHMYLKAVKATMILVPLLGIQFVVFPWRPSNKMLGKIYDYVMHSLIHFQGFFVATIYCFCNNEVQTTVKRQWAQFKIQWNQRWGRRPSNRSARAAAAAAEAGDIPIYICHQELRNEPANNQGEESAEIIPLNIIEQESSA
Kind of test: Calcitonin Receptor (CTR) cAMP Assay. Type of test: cell-based. The conditions noted are these: COS7-human CTR Clone #2 stable cell line, cAMP dynamic 2 kit, 30 min; read-out: Calcitonin Receptor cAMP Stimulation Activity: EC50. The method in brief: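 cAMP accumulation was measured by HTRF cAMP dynamic 2 read at 665/615 nm, 1 h at room temperature, with results scaled between vehicle and positive control. Before detection, COS7-human CTR stable cells were stimulated 30 min at 37 °C with compound (4-fold dilutions) in IBMX-containing HBSS/HEPES/casein buffer.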

T1 sequence (O60896 24-148, one chain of several): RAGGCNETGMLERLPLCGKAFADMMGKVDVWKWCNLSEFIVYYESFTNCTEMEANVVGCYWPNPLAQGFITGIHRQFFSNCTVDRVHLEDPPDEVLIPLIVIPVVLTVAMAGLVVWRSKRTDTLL

For `O=C1c2c(nc(CCc3ccc(F)cc3)c(-c3n[nH]c(=O)o3)c2-c2ccc3c(Cc4ccc(F)cc4F)noc3c2)[C@@H]2CCCN12` [Compound 221, (S)-5-(4-(3-(2,4-difluorobenzyl)benzo[d]isoxazol-6-yl)-2-(4-fluorophenethyl)-5-oxo-7,8,9,9a-tetrahydro-5H-pyrido[2,3-a]pyrrolizin-3-yl)-1,3,4-oxadiazol-2(3H)-one], the figures for the EC50 in test [1] and in test [2] were 865 nM and 15.5 nM, respectively.

As to `O=C1c2c(nc(CCc3ccc(F)cc3)c(-c3n[nH]c(=O)o3)c2-c2ccc3c(Cc4ccc(F)cn4)noc3c2)[C@@H]2CCCN12` [Compound 222, (S)-5-(2-(4-fluorophenethyl)-4-(3-((5-fluoropyridin-2-yl)methyl)benzo[d]isoxazol-6-yl)-5-oxo-7,8,9,9a-tetrahydro-5H-pyrido[2,3-a]pyrrolizin-3-yl)-1,3,4-oxadiazol-2(3H)-one], the EC50 in test [1] was 511 nM; in test [2] it was 12.8 nM.

For `N#Cc1ccc(Cn2ccc3cc(-c4c5c(nc(CCc6ccc(F)cc6)c4-c4n[nH]c(=O)o4)[C@@H]4CCCN4C5=O)cnc32)nc1` [Compound 223, (S)-6-((5-(2-(4-fluorophenethyl)-5-oxo-3-(5-oxo-4,5-dihydro-1,3,4-oxadiazol-2-yl)-7,8,9,9a-tetrahydro-5H-pyrido[2,3-a]pyrrolizin-4-yl)-1H-pyrrolo[2,3-b]pyridin-1-yl)methyl)nicotinonitrile], the figures for the EC50 in test [1] and in test [2] were 758 nM and 27.6 nM, respectively.

In the case of `COc1cccc2c1CC[C@H]2Nc1nccc2cc(-c3c4c(nc(C[C@H]5CCc6cc(F)ccc65)c3-c3n[nH]c(=O)o3)[C@@H]3CCCN3C4=O)sc12` [Compound 224, 5-((S)-2-(((R)-5-fluoro-2,3-dihydro-1H-inden-1-yl)methyl)-4-(7-(((R)-4-methoxy-2,3-dihydro-1H-inden-1-yl)amino)thieno[2,3-c]pyridin-2-yl)-5-oxo-7,8,9,9a-tetrahydro-5H-pyrido[2,3-a]pyrrolizin-3-yl)-1,3,4-oxadiazol-2(3H)-one], the values for the EC50 in test [1] and in test [2] were 50.7 nM and 0.702 nM, respectively.

In the case of `COc1cccc2c1CC[C@H]2Nc1nccc2cc(-c3c4c(nc(CCc5ccc(F)cc5)c3-c3n[nH]c(=O)s3)[C@@H]3CCCN3C4=O)sc12` [Compound 225, 5-((S)-2-(4-fluorophenethyl)-4-(7-(((R)-4-methoxy-2,3-dihydro-1H-inden-1-yl)amino)thieno[2,3-c]pyridin-2-yl)-5-oxo-7,8,9,9a-tetrahydro-5H-pyrido[2,3-a]pyrrolizin-3-yl)-1,3,4-thiadiazol-2(3H)-one], the figures for the half-maximal effective concentration (EC50) in test [1] and in test [2] were 14.6 nM and 0.836 nM, respectively.

`O=C1c2c(nc(CCc3ccc(F)cc3)c(-c3n[nH]c(=O)o3)c2-c2cc3ccnc(N[C@@H]4CCc5ccccc54)c3s2)[C@@H]2CCCN12` [Compound 226, 5-((S)-4-(7-(((R)-2,3-dihydro-1H-inden-1-yl)amino)thieno[2,3-c]pyridin-2-yl)-2-(4-fluorophenethyl)-5-oxo-7,8,9,9a-tetrahydro-5H-pyrido[2,3-a]pyrrolizin-3-yl)-1,3,4-oxadiazol-2(3H)-one]: the results for the EC50 in test [1] and in test [2] were 14.2 nM and 1.08 nM, respectively.

Consider `C[C@@H](Nc1nccc2cc(-c3c4c(nc(CCc5ccc(F)cc5)c3-c3n[nH]c(=O)o3)[C@@H]3CCCN3C4=O)sc12)c1ccc(F)c(F)c1` [Compound 227, 5-((S)-4-(7-(((R)-1-(3,4-difluorophenyl)ethyl)amino)thieno[2,3-c]pyridin-2-yl)-2-(4-fluorophenethyl)-5-oxo-7,8,9,9a-tetrahydro-5H-pyrido[2,3-a]pyrrolizin-3-yl)-1,3,4-oxadiazol-2(3H)-one], for which the results for the EC50 in test [1] and in test [2] were 33.3 nM and 1.67 nM, respectively.
